# From patent US9943522B2, “Use of cathepsin K inhibition for the treatment and/or prophylaxis of pulmonary hypertension and/or heart failure” (BAYER INTELLECTUAL PROPERTY GMBH, priority 2011, dated 2018)
# Tests used:
# CTSK = assay: Relative expression of CTSK in heart right ventricle, hypoxia-induced pulmonary hypertension model (TaqMan RT-PCR); format: in vivo, guinea pig; conditions: hypoxia 28 days, Odanacatib infusion, compared to placebo group; FIG. 4
# Experimental: (§1) To analyse the disease state of the animals and determine the efficacy of Odanacatib treatment, the expression of marker genes were performed. […] Due to the known correlation of increased ANP levels and disease stage in heart failure patients and animal models, the increased expression of […] seems to be correlated with pulmonary hypertension.
# (§2) Guinea pig or dog tissues were pulverized by grinding with liquid nitrogen. Total RNA was extracted, DNase I digestion was performed to remove residual genomic DNA and the RNA were reverse transcribed using random hexomer primers. Quantitative TaqMan RT-PCR analysis was performed using the Applied Biosystems PRISM 7900 sequence detection system. […] Results were normalized to L32 (dog) or b-actin (guinea pig) controls, and relative expression was calculated according to the following formula: relative expression=2(20-(CT(probe)-CT(L32/b-actin))). […]
# (§3) Male Dunkin Hartley guinea pigs weighing approximately 250 g were randomized to three different treatment groups (n=7-8 animals/group; control+placebo, hypoxia+placebo, hypoxia+Odanacatib). […] The heart was dissected, and the ratio of the right ventricle to left ventricle plus septum weight (RV/LV+S) was calculated as an index of right ventricular hypertrophy. The right ventricle was snap-frozen on dry ice for RNA extraction and quantitative real-time polymerase chain reaction. […]
# LTBP2 = assay: Relative expression of LTBP2 in heart right ventricle, hypoxia-induced pulmonary hypertension model (TaqMan RT-PCR); format: in vivo, guinea pig; conditions: hypoxia 28 days, Odanacatib infusion, compared to placebo group; FIG. 3
# Experimental: as §1, §2
# For relative quantitation of the mRNA distribution of LTBP2, total RNA from each sample was first reverse transcribed. […]
# For relative quantitation of the distribution of LTBP2 mRNA the Applied Bioscience ABI 7900HT Sequence Detection system was used according to the manufacturer's specifications and protocols.
# PCR reactions were set up to quantitate LTBP2 and the housekeeping gene b-actin. […]
# [1] = test system: hypoxia-induced pulmonary hypertension in the guinea pig; assay: Hypoxia-induced pulmonary hypertension in the guinea pig: right ventricular hypertrophy (RV/LV+S); format: in vivo
# Source text: Chronic hypoxia is a literature described and accepted animal model for pulmonary hypertension and is described for different species (Am J Physiol Lung Cell Mol Physiol 297: L1013-L1032, 2009; J Pharmacol Sci 107, 8-14 (2008); Pharmacology & Therapeutics 92 (2001) 1-20). Acute hypoxia increases pulmonary arterial pressure through pulmonary arterial constriction. Chronic hypoxia causes more severe pulmonary hypertension through vascular architectural changes and an increase of hematocrit (Hct) in the blood. […]
# The CTSK inhibitor Odanacatib was tested in a guinea pig model for pulmonary hypertension as described in the examples section. […] The heart was dissected, and the ratio of the right ventricle to left ventricle plus septum weight (RV/LV+S) was calculated as an index of right ventricular hypertrophy. The right ventricle was snap-frozen on dry ice for RNA extraction and quantitative real-time polymerase chain reaction. […]
# Male Dunkin Hartley guinea pigs weighing approximately 250 g were randomized to three different treatment groups (n=7-8 animals/group; control+placebo, hypoxia+placebo, hypoxia+Odanacatib). […] The heart was dissected, and the ratio of the right ventricle to left ventricle plus septum weight (RV/LV+S) was calculated as an index of right ventricular hypertrophy. […]
# ANP = assay: Relative expression of ANP in heart right ventricle, hypoxia-induced pulmonary hypertension model (TaqMan RT-PCR); format: in vivo, guinea pig; conditions: hypoxia 28 days, Odanacatib infusion, compared to placebo group; FIG. 2
# Experimental: as §1, §2, §3
smiles,measurement,setting,value
CC(C)(F)C[C@H](N[C@@H](c1ccc(-c2ccc(S(C)(=O)=O)cc2)cc1)C(F)(F)F)C(=O)NC1(C#N)CC1 [Odanacatib],expression of CTSK in heart (right ventricle) under hypoxia,CTSK,markedly decreased expression
same,expression of LTBP2 in heart (right ventricle) under hypoxia,LTBP2,markedly decreased expression
same,ratio of the right ventricle to left ventricle plus septum weight (RV/LV+S),"[1]; Mean±SEM, normobaric hypoxia (10% O2) 28 days, continuous infusion by osmotic minipump day 0-28, hypoxic placebo 0.37±0.01, normoxic control 0.28±0.01",0.30±0.01
same,right ventricle weight,"[1]; hypoxia-induced pulmonary hypertension animals, compared to placebo treated animals",reduction of right ventricle weight
same,expression of ANP in heart (right ventricle) under hypoxia,ANP,markedly decreased expression
